Data: patent US10428060B2, “PI-kinase inhibitors with anti-infective activity” (The Board of Trustees of the Leland Stanford Junior …, priority 2011, dated 2019)
“Also recorded” adds a separate entry of the source.

How the values were obtained:
[1] = system: PI(4)P and PI(4,5)P2 pools in Huh7.5 cells; assay: Immunofluorescence of intracellular PI-4 and PIP2 pools in Huh7.5 cells; assay type: cell-based
Experimental: To further confirm its mechanism of action the effect of (1) on PI-4 levels was determined in cells using immunofluorescence to monitor the intracellular localized pools of PI-4. The effect of (1) on intracellular pools of PIP2 was tested, which were predicted to be similarly sensitive to inhibition using (1). […] Uninfected Huh7.5 cells or HCV-infected Huh7.5 cells were used.

PI3KC2B = PI3KC2B (Homo sapiens, UniProt O00750); assay: PI3KC2B kinase assay; assay type: biochemical
Experimental: (§1) PI-kinase assay: Compounds are tested in C.1.1. PI kinase assays as described by Shokat et al., “A membrane capture assay for lipid kinase activity.” Nat. Protoc. 2007; 2(10):2459-66.

HRV = assay: Rhinovirus antiviral assay; assay type: cell-based; details: Human rhinovirus sp.
HCV genotype 2a = assay: microbe, parasite or virus in culture; assay type: cell-based; details: Hepatitis C virus, Huh7.5, read-out: HCV2a EC50
PI3K p110g = biological target: T1, PI3K p110g (Homo sapiens, UniProt P48736); assay: PI3K p110g kinase assay; assay type: biochemical
T1 construct: purchased Millipore
Experimental: (§2) In the assays described here, p110α-p85 complex and p110γ were acquired from Millipore. Assays were performed with Lα-phosphatidylinositol (Avanti) as described in Knight et al. Nat Protoc. 2007; 2 (10):2459-66. Inhibitor series were prepared 10% DMSO as 5× stocks for the assay. Assays of HsVps34 were performed as described in Knight et al, except that the final assay buffer composition used was changed to 20 mM HEPES 7.5, 100 mM NaCl, 3 mM MgCl, 1 mg/mL PI and 44 nM hvps34 was used in the assay. […] COS-7 cells were cultured in 10 cm dishes and transfected at 70% confluence with 10 μg of plasmid DNA (HA-tagged bovine PI4KIIIβ, HA-tagged human PI4KIIIα) using Lipofectamine 2000 and 5 ml Opti-MEM following the manufacturer's instructions. After 5 hours the transfection medium was replaced with 10 ml complete DMEM. 36 hrs post transfection, cells were washed once with 5 ml PBS (pH 7.4) and lysed in 1 ml of lysis buffer (1) on ice. Lysates were collected by scraping and after 15 min they were centrifuged at 13,000 rpm for 10 min. To the lysates was added 200 μl of protein G Sepharose 4 fast flow beads that were prewashed with PBS and lysis buffer and 2 μg of anti-HA antibody. The tubes were then incubated overnight at 4 degrees C. in a tube rotator. The Sepharose beads in the lysate were washed twice with 150 mM NaCl in RIPA buffer, twice with RIPA buffer and once with kinase buffer (50 mM Tris/HCl, pH 7.5, 20 mM MgCl2, 1 mM EGTA, 1 mM PtdIns, 0.4% Triton X-100, 0.5 mg/mL BSA) and finally the beads were resuspended in 200 μL kinase buffer. Kinase reactions were run in a mixture of 45 μL of PI buffer (1 mM PI in kinase buffer), 10 μL of immunoprecipitated beads, 2 µL of inhibitors (dissolved and diluted in DMSO) or DMSO and 5 μL of [γ-^32P]-ATP (1 mM and 2 μCi/tube). The immunoprecipitates in PI buffer were pre-incubated with the drugs for 20 min prior the initiation of kinase reaction by adding ATP and the reactions were carried out for 30 min in 15 ml polypropolyne tubes. Reactions were terminated by addition of 3 ml of CHCl3:CH3OH:HCl (200:100:0.75) followed by 0.6 ml of 0.6N HCl to induce phase separation. The mixtures were vortexed, centrifuged at 2000 rpm for 2 min and the upper phase was discarded. To the lower phase was added 1.5 ml of CHCl3:CH3OH:0.6N HCl (3:48:47) and the mixture vortexed and centrifuged at 2000 rpm for 2 min. The lower phase was then transferred to counting vials and evaporated. Samples were counted in a scintillation beta counter after adding 5 ml of Instafluor (Perkin-Elmer).
as §1

PI4KIIIB = biological target: T2, PI4KIIIB (Bos taurus, UniProt O02810); assay: PI4KIIIB kinase assay; assay type: biochemical, bovine
T2 construct: made in house; host or cells: COS-7 cells, transient transfection, anti-HA immunoprecipitate on protein G Sepharose beads
Experimental: as §2, with “2007; 2 (10):2459-66.” left out, “for” for “for the assay. Assays of HsVps34 were performed as described in Knight et al, except that the final assay buffer composition used was changed to 20 mM HEPES 7.5, 100 mM NaCl, 3 mM MgCl, 1 mg/mL PI and 44 nM hvps34 was used in”, “Lysates were collected by scraping and after 15 min they were centrifuged at 13,000 rpm for 10 min.” left out, “The Sepharose beads in the lysate were washed twice with 150 mM NaCl in RIPA buffer, twice with RIPA buffer and once with kinase buffer (50 mM Tris/HCl, pH 7.5, 20 mM MgCl2, 1 mM EGTA, 1 mM PtdIns, 0.4% Triton X-100, 0.5 mg/mL BSA) and finally the beads were resuspended in 200 μL kinase buffer.” left out
PI-kinase assay: Compounds are tested in C.1.1. PI kinase assays as described by Shokat et al., “A membrane capture assay for lipid kinase activity.” Nat. Protoc.

PI4KIIIA = biological target: T3, PI4KIIIA (Homo sapiens, UniProt P42356); assay: PI4KIIIA kinase assay; assay type: biochemical
T3 construct: made in house; host or cells: COS-7 cells, transient transfection, anti-HA immunoprecipitate on protein G Sepharose beads
Experimental: as §2, with “Reactions were terminated by addition of 3 ml of CHCl3:CH3OH:HCl (200:100:0.75) followed by 0.6 ml of 0.6N HCl to induce phase separation. The mixtures were vortexed, centrifuged at 2000 rpm for 2 min and the upper phase was discarded. To the lower phase was added 1.5 ml of CHCl3:CH3OH:0.6N HCl (3:48:47) and the mixture vortexed and centrifuged at 2000 rpm for 2 min. The lower phase was then transferred to counting vials and evaporated.” left out, “(Perkin-Elmer). […]” for “(Perkin-Elmer).”

PI3K p110a = biological target: T4, PI3K p110a (Homo sapiens, UniProt P42336); assay: PI3K p110a kinase assay; assay type: biochemical
T4 construct: purchased Millipore
Experimental: In the assays described here, p110α-p85 complex and p110γ were acquired from Millipore. Assays were performed with Lα-phosphatidylinositol (Avanti) as described in Knight et al. Nat Protoc. […] Inhibitor series were prepared 10% DMSO as 5× stocks for the assay. […] COS-7 cells were cultured in 10 cm dishes and transfected at 70% confluence with 10 μg of plasmid DNA (HA-tagged bovine PI4KIIIβ, HA-tagged human PI4KIIIα) using Lipofectamine 2000 and 5 ml Opti-MEM following the manufacturer's instructions. After 5 hours the transfection medium was replaced with 10 ml complete DMEM. 36 hrs post transfection, cells were washed once with 5 ml PBS (pH 7.4) and lysed in 1 ml of lysis buffer (1) on ice. […] To the lysates was added 200 μl of protein G Sepharose 4 fast flow beads that were prewashed with PBS and lysis buffer and 2 μg of anti-HA antibody. The tubes were then incubated overnight at 4 degrees C. in a tube rotator. […] Kinase reactions were run in a mixture of 45 μL of PI buffer (1 mM PI in kinase buffer), 10 μL of immunoprecipitated beads, 2 µL of inhibitors (dissolved and diluted in DMSO) or DMSO and 5 μL of [γ-^32P]-ATP (1 mM and 2 μCi/tube). […] Samples were counted in a scintillation beta counter after adding 5 ml of Instafluor (Perkin-Elmer). […]

[2] = immunofluorescence, 250 nM, 500 nM or 1 uM, uninfected or HCV-infected Huh7.5 cells

Chain of PI3KC2B (O00750 whole entry): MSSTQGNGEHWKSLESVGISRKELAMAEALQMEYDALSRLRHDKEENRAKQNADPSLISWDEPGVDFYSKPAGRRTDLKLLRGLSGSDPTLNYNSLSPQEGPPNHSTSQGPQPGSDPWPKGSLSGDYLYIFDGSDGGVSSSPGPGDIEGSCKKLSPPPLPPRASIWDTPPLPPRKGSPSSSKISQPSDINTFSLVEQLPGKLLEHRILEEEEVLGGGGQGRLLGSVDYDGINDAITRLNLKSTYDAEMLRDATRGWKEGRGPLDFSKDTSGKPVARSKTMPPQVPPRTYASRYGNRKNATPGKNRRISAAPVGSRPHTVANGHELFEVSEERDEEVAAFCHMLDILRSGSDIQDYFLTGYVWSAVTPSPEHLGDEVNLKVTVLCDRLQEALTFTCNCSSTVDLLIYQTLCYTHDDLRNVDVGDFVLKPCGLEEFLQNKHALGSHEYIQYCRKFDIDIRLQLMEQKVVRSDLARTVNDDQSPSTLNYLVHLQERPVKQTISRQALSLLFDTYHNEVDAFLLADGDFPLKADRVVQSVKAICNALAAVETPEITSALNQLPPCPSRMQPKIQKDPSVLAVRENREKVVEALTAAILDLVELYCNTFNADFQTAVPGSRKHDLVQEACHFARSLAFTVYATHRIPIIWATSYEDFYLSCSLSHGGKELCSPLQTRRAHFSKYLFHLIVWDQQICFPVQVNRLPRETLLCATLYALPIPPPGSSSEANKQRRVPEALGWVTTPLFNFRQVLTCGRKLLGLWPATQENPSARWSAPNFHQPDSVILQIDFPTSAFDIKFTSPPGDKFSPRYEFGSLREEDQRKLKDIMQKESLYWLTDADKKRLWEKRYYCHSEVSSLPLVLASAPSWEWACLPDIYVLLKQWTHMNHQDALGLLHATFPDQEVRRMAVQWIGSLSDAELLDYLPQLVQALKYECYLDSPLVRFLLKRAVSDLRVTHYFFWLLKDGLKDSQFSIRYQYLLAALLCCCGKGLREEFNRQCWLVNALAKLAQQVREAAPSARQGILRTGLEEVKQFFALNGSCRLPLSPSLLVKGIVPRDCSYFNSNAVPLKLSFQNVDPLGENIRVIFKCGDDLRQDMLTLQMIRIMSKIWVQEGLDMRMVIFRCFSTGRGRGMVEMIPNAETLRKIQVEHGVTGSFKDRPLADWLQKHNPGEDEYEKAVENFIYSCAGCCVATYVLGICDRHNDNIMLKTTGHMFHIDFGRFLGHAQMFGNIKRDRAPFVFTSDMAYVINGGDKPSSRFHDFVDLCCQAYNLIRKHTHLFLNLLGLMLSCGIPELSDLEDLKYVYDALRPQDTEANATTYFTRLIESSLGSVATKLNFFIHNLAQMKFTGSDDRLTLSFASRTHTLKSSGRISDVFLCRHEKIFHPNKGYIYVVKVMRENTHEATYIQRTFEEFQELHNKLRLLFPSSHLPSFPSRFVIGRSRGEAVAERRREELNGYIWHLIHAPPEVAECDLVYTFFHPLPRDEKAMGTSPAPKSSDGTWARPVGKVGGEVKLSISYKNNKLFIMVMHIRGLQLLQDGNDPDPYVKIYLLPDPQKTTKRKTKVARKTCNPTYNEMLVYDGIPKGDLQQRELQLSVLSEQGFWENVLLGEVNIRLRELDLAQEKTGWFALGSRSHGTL
T1 sequence (P48736 whole entry): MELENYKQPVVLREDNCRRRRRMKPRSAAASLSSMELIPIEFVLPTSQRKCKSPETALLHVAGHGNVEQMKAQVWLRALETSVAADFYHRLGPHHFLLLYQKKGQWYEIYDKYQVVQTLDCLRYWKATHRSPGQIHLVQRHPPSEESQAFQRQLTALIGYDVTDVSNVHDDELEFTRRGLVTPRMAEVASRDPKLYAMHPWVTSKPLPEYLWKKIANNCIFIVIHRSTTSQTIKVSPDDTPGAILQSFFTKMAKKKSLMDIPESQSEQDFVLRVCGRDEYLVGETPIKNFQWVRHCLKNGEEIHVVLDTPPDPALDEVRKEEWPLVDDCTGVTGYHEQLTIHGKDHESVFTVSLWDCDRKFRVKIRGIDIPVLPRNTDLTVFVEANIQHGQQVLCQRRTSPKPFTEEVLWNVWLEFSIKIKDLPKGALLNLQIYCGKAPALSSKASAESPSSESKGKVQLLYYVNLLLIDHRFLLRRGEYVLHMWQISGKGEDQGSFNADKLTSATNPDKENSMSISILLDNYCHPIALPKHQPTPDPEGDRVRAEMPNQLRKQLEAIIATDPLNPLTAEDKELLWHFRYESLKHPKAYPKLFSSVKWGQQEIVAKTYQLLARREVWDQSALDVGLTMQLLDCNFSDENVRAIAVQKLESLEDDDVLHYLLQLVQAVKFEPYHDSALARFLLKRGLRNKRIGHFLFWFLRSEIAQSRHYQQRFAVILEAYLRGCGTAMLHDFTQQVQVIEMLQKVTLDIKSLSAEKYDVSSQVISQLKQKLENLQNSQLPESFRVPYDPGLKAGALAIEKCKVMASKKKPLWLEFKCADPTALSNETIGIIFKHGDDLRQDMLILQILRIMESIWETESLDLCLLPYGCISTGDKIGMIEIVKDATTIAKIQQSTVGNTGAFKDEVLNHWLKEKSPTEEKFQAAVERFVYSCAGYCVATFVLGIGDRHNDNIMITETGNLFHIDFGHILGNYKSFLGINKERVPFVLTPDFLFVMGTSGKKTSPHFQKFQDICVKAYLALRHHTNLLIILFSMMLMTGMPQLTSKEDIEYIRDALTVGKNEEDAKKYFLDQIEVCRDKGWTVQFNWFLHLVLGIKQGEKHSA
T2 sequence (O02810 whole entry): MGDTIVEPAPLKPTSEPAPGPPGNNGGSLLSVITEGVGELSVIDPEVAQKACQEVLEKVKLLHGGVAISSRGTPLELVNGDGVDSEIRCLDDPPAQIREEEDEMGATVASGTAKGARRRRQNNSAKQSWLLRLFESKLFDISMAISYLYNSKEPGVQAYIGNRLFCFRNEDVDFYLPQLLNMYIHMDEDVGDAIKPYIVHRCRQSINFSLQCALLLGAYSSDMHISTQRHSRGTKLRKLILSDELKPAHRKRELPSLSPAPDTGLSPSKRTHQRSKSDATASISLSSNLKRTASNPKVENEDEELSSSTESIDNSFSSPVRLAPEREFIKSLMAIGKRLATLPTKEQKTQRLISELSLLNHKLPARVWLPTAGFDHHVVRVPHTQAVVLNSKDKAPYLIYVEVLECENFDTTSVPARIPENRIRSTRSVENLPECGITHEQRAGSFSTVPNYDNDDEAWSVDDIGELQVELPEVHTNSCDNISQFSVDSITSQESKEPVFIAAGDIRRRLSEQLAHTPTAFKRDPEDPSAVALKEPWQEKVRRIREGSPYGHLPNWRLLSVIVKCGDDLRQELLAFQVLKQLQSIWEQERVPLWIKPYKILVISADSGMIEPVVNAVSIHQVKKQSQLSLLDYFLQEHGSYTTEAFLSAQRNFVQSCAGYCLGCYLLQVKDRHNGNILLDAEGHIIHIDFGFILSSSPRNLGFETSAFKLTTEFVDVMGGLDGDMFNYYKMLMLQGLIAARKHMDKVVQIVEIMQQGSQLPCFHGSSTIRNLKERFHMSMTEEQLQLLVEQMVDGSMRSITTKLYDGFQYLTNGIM

Row | SMILES | IC50 (PI3KC2B) | EC50 (HRV) | EC50 (HCV genotype 2a) | IC50 (PI3K p110g) | further results
1 | COc1ccc(-c2sc(NC(=O)C3CCCC3)nc2C)cc1S(=O)(=O)Nc1ccc(O)cc1 [Compound 1] |  |  |  |  | Effect on the ER (calnexin co-staining) ([1]; control for non-specific effects): absence of any detectable effects on the ER; Effect on intracellular PI-4 (PI(4)P) levels [1, 2]: dose-dependent decrease; also recorded: decreases; Effect on intracellular PIP2 (PI(4,5)P2) levels [1, 2]: dose-dependent decrease; also recorded: decreases
2 | COc1ccc(-c2sc(NC(=O)CC3CCCC3)nc2C)cc1S(=O)(=O)Nc1ccc(O)cc1 [Compound S-1, 2-cyclopentyl-N-[5-[3-[(4-hydroxyphenyl)sulfamoyl]-4-methoxy-phenyl]-4-methyl-thiazol-2-yl]acetamide] | > 10000 nM | < 1 nM | 1 to 100 nM | > 10000 nM | 
3 | COc1ccc(-c2sc(NCC3CCCCC3)nc2C)cc1S(=O)(=O)NC1CCCNC1 (centres unmarked) [Compound S-115, 5-[2-(cyclohexylmethylamino)-4-methyl-thiazol-5-yl]-2-methoxy-N-(3-piperidyl)benzenesulfonamide] |  | < 1 nM | 100 to 1000 nM |  | IC50 (PI4KIIIB): < 100 nM
4 | COc1ccc(-c2sc(N[C@H](C)C3CCCCC3)nc2C)cc1S(=O)(=O)NC1CCCNC1 (stereo partly drawn) [Compound S-148, 5-[2-[[(1R)-1-cyclohexylethyl]amino]-4-methyl-thiazol-5-yl]-2-methoxy-N-(3-piperidyl)benzenesulfonamide] |  |  |  | > 10000 nM | IC50 (PI4KIIIB): < 100 nM; IC50 (PI4KIIIA): 100 to 1000 nM; IC50 (PI3K p110a): > 10000 nM
5 | COc1ccc(-c2sc(NC(=O)CCC3CCCC3)nc2C)cc1S(=O)(=O)NC1CCNCC1 [Compound S-160, 3-cyclopentyl-N-[5-[4-methoxy-3-(4-piperidylsulfamoyl)phenyl]-4-methyl-thiazol-2-yl]propanamide] | > 10000 nM |  |  | > 10000 nM | 
6 | COc1ccc(-c2sc(N[C@H](C)C3CCCCC3)nc2C)cc1S(=O)(=O)N[C@H]1CC[C@H](O)CC1 [Compound S-193, 5-[2-[[(1R)-1-cyclohexylethyl]amino]-4-methyl-thiazol-5-yl]-N-(4-hydroxycyclohexyl)-2-methoxy-benzenesulfonamide] | > 10000 nM |  |  |  | 
7 | COc1ccc(-c2sc(NC(C)C)nc2C)cc1S(=O)(=O)N[C@H]1CC[C@H](O)CC1 [Compound S-215, N-(4-hydroxycyclohexyl)-5-[2-(isopropylamino)-4-methyl-thiazol-5-yl]-2-methoxy-benzenesulfonamide] | > 10000 nM |  |  | > 10000 nM | 
8 | COc1ccc(-c2sc(NC(C)(C)C)nc2C)cc1S(=O)(=O)N[C@H]1CC[C@H](O)CC1 [Compound S-216, 5-[2-(tert-butylamino)-4-methyl-thiazol-5-yl]-N-(4-hydroxycyclohexyl)-2-methoxy-benzenesulfonamide] | > 10000 nM |  |  | > 10000 nM | 
9 | COc1ccc(-c2sc(NC(=O)CC3CCOCC3)nc2C)cc1S(=O)(=O)Nc1ccc(O)cc1C [Compound S-231, N-[5-[3-[(4-hydroxy-2-methyl-phenyl)sulfamoyl]-4-methoxy-phenyl]-4-methyl-thiazol-2-yl]-2-tetrahydropyran-4-yl-acetamide] | > 10000 nM |  |  | > 10000 nM | 
10 | COc1ncc(-c2sc(NC(=O)CC3CCOCC3)nc2C)cc1S(=O)(=O)Nc1ccc(O)cc1 [Compound S-261] |  | 1000 to 10000 nM | 1 to 100 nM | 100 to 1000 nM | 
